Reference: patent US20030143713A1, “Novel glycosidase inhibitors and their pharmacological uses, in particular for treating diabetes” (priority 1999, published 2003)

Molecular target: T1, isoenzyme 1 of barley α-amylase (AMY1) (Hordeum vulgare, UniProt P00693)
T1 construct: made in house; host or cells: Pichia pastoris
Experiment: X-ray crystal structure of the AMY1/spermidine complex (cocrystallisation with spermidine, then soaking in acarbose)
Format: binding
Description: The 9 C-terminal residues of recombinant isoenzyme 1 of barley α-amylase (AMY1) were cleaved in order to obtain a C-terminal end of the same length as that of isoenzyme 2 (AMY2). The protein was then over-expressed in Pischia pastoris, purified and concentrated.
The protein preparation used for crystallisation has a concentration of 5.1 mg/ml and is in a solution of 10 mM MES (2-[N]-Morpholino ethane sulphonic acid), 100 mM CaCl2, 0.02% NaN3, pH 6.7.
The crystals were obtained by cocrystallisation thanks to the vapour diffusion principle using the hanging droplet technique. To do this, 2.5 μl of polyethylene glycol 8000 at 21% as a precipitating agent and 0.5 μl of a 0.1M solution of spermidine as a crystallisation additive were added to 2 μl of the protein solution described previously. This droplet was equilibrated at 19° C. against a reservoir containing 500 μl of polyethylene glycol 8000 at 21%.
The crystals were then immersed for 20 hours in a polyethylene glycol 8000 solution at 21% containing 10 mM of acarbose (a pseudo-tetrasaccharide).
Collection of the diffraction data was carried out using an X-ray generator (CuKα radiation—wavelength 1.5418 Å) with a rotating anode (Nonius 581) operating at 40 kV and 90 mA (i.e. 3.6 kW) with a graphite monochromator coupled to a two-dimensional detector of Image Plate type (MarResearch 345) of 34.5 cm in diameter.
A set of 180 diffraction exposures (each corresponding to 1° of oscillation of the crystal) was collected at 15° C., the crystal being capillary mounted and positioned at 120 mm from the detector, with an exposure time of the crystal to the X-rays of 500s per exposure. The highest resolution of this set of data is 2.44 Å.
We then determined the space group as being a P212121. The asymmetrical unit is composed of a molecule of the AMY1/spermidine complex, which corresponds to a volume of solvent in the lattice of 53%.
Subsequent processing of the data was carried out using the CCP4 suite of programs (CCP4, 1994).
The molecular replacement method was used thanks to the AmoRe software (Navaza, 1994) using the structure of isoenzyme 2 of barley α-amylase (AMY2-accession code PDB: 1AMY) (Kadziola et al., 1994 and Kadziola et al., 1998) as a guide model because of the significant sequence homology (80%) between this initial model and our protein of interest (AMY1). Refinement phases using molecular dynamic techniques (simulated annealing—Brünger et al., 1990) were carried out with CNS software version 0.9a (Brünger et al., 1998) alternating with model manipulations. […] In order to do this, 2Fo-Fc and Fo-Fc electronic density maps were calculated. […]

[1] = experimental AMY1/spermidine complex

T1 sequence (P00693 25-429 limits assumed): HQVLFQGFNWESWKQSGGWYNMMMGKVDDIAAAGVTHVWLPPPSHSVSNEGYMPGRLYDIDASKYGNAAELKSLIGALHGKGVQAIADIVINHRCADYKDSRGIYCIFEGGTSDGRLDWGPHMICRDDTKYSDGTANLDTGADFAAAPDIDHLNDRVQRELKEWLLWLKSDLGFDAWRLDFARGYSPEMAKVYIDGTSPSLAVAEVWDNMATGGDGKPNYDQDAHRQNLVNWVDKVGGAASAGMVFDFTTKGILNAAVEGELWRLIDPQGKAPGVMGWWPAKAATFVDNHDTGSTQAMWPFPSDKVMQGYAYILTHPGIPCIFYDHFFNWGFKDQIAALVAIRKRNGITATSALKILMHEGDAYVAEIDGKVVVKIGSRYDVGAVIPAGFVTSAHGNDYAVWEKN

For `NCCCCNCCCN` [spermidine], the “Direct hydrogen bonds with a residue” value [1] was 5, the “Direct hydrogen bonds with a water molecule” value [1] was 4 and the “total of H bonds stabilising the complex” value (experimental AMY1/spermidine structure) was 9. For the same molecule, the “affinity for the enzyme compared with acarbose type inhibitors” value (in the presence of the two types of inhibitors (spermidine and acarbose)) was “significantly greater affinity for the enzyme in comparison to the acarbose type inhibitors”.
